Results: patent US12227488B2, “Small molecule degraders of Helios and methods of use” (DANA-FARBER CANCER INSTITUTE, INC., priority 2018, dated 2025)

Legend:
CRBN and Helios (IKZF2) = target: T1, CRBN and Helios (IKZF2) (Homo sapiens, UniProt Q96SW2+Q9UKS7); assay: TR-FRET dimerization assay (CRBN-IKZF2 ternary complex formation); assay type: binding; details: n=1
T1 construct: His (N); Strep (N)
How it was run: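 Compound-induced IKZF2 recruitment to CRBN was read as the 520/490 nm TR-FRET ratio after 15 min at rt. The mix held biotinylated IKZF2, BODIPY-labeled CRBN bound to DDB1 lacking the BPB propeller, tracer Tb-streptavidin and compound titrations; n=1, from ≥3 technical replicates per well.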

IKZF2 = assay: Cellular degradation assay, eGFP-IKZF2Δ fusion with mCherry reporter in Flp-In 293 cells; assay type: cell-based; details: for IKZF2 GFP/RFP Relative Abundance: 5 h incubation, n=1; for DC50: half degradation at 5 h (DC50,5 h), triplicate, 11 point dose response
How it was run: (§1)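 DC50,5 h derived by variable-slope nonlinear fit of the per-well ratio of GFP-positive to mCherry-positive cells, imaged after 5 h compound exposure at 0.5% DMSO.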

IKZF1 = target: T2, IKZF1 (Homo sapiens, UniProt Q13422); assay: Cellular degradation assay, eGFP-IKZF1Δ fusion with mCherry reporter in Flp-In 293 cells; assay type: cell-based; details: for IKZF1 GFP/RFP Relative Abundance: 5 h incubation, n=1; for DC50: half degradation at 5 h (DC50,5 h), triplicate, 11 point dose response
T2 construct: expressed in transfected cells; host or cells: Flp-In 293
How it was run: as §1

GSPT1 = GSPT1 (Homo sapiens, UniProt P15170+Q96SW2); assay: Cellular degradation assay, eGFP-GSPT1 fusion with mCherry reporter in Flp-In 293 cells; assay type: cell-based; parameters: expressed in transfected cells; host or cells: Flp-In 293; details: for GSPT1 GFP/RFP Relative Abundance: 5 h incubation, n=1; for DC50: half degradation at 5 h (DC50,5 h), triplicate, 11 point dose response
Description: IKZF1Δ, IKZF2Δ, GSPT1 and SALL4 ZnF1-2 were subcloned into mammalian pcDNA5/FRT Vector (Ampicillin and Hygromycin B resistant) modified to contain MCS-eGFP-P2A-mCherry. […] Following 2-3 passage cycle, FACS (FACSAria™ II, BD) was used to enrich for cells expressing eGFP and mCherry. Cells stably expressing the IKZF1Δ, IKZF2Δ, GSPT1 or SALL4 Znf1-2 GFP fusions with mCherry reporter were seeded at 30-50% confluency in 384-well plates with 50 μL FluoroBrite™ DMEM media (Thermo Fisher Scientific, A18967) containing 10% FBS per well a day before compound treatment. Compound titrations were dispensed using a D300e Digital Dispenser (HP), normalized to 0.5% DMSO, and incubated with cells for 5 hours.
The resulting images were analyzed using CellProfiler™. A series of image analysis steps (‘image analysis pipeline’) was constructed. First, the red and green channels were aligned and cropped to target the middle of each well (to avoid analysis of heavily clumped cells at the edges), and a background illumination function was calculated for both red and green channels of each well individually and subtracted to correct for illumination variations across the 384-well plate from various sources of error. An additional step was then applied to the green channel to suppress the analysis of large auto fluorescent artifacts and enhance the analysis of cell specific fluorescence by way of selecting for objects under a given size, 30 A.U., and with a given shape, speckles. mCherry-positive cells were then identified in the red channel filtering for objects between 8-60 pixels in diameter and using intensity to distinguish between clumped objects. The green channel was then segmented into GFP positive and negative areas and objects were labeled as GFP positive if at least 40% of it overlapped with a GFP positive area. The fraction of GFP-positive cells/mCherry-positive cells in each well was then calculated, and the green and red images were rescaled for visualization.
The degradation assay was performed as described above. […] Degradation was measured after 5 h of compound treatment and the concentrations that lead to half degradation at 5 h (DC50,5 h) were calculated using the nonlinear fit variable slope model (GraphPad Software).

[1] = compound concentration 6.6667E−05
[2] = compound concentration 6.6667E−06
[3] = compound concentration 6.6667E−07 (667 nM)
[4] = compound concentration 2.00E−05
[5] = compound concentration 2.00E−06
[6] = compound concentration 2.00E−07

T2 sequence (Q13422 83-213 isoform Q13422-7 limits assumed): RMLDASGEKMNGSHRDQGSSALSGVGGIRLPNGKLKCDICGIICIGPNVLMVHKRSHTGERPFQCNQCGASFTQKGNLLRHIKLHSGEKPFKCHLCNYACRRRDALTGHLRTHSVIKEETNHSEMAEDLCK
T2 sequence (Q96SW2 whole entry partner, the tested form may be a part): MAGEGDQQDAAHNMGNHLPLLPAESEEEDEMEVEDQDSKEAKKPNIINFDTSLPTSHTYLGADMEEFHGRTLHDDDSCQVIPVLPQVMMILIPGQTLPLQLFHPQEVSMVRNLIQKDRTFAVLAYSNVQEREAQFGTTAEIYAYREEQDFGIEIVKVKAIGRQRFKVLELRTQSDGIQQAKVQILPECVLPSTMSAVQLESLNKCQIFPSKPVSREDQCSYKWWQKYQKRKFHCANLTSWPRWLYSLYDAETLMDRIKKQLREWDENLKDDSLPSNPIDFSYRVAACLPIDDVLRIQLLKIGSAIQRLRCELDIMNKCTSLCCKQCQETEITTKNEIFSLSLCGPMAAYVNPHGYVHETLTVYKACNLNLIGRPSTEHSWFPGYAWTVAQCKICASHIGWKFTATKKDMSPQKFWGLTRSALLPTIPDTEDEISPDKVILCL
T2 sequence (Q16531 2-1140 partner limits assumed): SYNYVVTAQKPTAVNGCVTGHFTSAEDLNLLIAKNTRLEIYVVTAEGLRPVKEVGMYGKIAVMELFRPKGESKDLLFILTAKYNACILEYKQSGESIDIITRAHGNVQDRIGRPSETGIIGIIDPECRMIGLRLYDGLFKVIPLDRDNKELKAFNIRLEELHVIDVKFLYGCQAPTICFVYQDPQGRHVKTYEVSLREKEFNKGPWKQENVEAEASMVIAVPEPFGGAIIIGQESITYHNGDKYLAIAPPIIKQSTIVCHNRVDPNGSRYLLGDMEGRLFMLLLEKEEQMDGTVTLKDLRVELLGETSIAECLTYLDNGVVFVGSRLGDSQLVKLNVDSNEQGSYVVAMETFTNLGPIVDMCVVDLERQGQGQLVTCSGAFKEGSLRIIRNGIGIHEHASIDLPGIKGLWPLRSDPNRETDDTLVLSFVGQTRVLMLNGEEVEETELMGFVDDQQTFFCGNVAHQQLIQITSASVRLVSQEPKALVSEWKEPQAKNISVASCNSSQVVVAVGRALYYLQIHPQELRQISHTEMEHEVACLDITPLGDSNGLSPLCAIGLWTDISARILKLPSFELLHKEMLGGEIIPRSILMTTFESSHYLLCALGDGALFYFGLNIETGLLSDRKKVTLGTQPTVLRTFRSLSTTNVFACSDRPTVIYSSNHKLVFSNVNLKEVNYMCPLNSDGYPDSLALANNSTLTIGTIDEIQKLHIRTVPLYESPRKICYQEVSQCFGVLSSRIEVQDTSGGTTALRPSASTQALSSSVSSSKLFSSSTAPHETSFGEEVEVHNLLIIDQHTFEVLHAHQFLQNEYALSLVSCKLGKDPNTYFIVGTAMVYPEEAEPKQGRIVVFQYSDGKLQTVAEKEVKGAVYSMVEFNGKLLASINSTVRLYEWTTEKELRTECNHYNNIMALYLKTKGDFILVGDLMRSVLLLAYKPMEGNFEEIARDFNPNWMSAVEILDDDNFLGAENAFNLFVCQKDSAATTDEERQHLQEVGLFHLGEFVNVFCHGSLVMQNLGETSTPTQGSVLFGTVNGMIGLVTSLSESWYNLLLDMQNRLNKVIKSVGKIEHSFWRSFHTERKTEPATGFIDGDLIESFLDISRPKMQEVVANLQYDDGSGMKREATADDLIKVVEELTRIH
T1 sequence (Q96SW2 whole entry): as the sequence (Q96SW2 whole entry partner, the tested form may be a part) above
T1 sequence (Q9UKS7 whole entry): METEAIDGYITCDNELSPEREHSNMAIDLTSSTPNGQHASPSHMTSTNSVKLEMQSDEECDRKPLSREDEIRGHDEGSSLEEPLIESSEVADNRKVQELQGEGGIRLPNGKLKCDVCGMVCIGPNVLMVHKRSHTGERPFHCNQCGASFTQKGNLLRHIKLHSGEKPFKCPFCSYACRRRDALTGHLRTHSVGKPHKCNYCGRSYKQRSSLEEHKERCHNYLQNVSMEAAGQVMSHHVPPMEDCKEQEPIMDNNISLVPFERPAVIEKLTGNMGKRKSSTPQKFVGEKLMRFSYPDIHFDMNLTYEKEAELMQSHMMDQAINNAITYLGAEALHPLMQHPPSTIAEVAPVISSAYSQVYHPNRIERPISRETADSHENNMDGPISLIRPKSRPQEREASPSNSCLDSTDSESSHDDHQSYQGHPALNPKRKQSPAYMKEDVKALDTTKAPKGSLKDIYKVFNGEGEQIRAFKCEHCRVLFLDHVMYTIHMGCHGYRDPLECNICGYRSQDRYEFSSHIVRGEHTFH
GSPT1, sequence (P15170 whole entry, the tested form may be a part): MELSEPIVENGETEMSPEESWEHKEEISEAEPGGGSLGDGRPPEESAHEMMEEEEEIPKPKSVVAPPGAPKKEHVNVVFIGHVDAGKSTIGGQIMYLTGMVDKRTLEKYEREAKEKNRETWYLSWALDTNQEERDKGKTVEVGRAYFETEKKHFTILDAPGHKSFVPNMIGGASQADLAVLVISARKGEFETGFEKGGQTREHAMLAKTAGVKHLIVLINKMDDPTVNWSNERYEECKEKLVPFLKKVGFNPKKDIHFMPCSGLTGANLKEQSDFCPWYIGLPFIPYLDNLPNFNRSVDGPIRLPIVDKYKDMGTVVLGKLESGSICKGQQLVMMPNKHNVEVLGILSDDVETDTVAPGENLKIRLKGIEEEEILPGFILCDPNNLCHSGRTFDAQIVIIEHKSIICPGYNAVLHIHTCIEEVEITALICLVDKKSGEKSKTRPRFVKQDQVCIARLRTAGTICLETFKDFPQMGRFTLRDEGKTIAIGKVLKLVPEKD
GSPT1, sequence (Q96SW2 whole entry, the tested form may be a part): as the sequence (Q96SW2 whole entry partner, the tested form may be a part) above
GSPT1, sequence (Q16531 whole entry partner, the tested form may be a part): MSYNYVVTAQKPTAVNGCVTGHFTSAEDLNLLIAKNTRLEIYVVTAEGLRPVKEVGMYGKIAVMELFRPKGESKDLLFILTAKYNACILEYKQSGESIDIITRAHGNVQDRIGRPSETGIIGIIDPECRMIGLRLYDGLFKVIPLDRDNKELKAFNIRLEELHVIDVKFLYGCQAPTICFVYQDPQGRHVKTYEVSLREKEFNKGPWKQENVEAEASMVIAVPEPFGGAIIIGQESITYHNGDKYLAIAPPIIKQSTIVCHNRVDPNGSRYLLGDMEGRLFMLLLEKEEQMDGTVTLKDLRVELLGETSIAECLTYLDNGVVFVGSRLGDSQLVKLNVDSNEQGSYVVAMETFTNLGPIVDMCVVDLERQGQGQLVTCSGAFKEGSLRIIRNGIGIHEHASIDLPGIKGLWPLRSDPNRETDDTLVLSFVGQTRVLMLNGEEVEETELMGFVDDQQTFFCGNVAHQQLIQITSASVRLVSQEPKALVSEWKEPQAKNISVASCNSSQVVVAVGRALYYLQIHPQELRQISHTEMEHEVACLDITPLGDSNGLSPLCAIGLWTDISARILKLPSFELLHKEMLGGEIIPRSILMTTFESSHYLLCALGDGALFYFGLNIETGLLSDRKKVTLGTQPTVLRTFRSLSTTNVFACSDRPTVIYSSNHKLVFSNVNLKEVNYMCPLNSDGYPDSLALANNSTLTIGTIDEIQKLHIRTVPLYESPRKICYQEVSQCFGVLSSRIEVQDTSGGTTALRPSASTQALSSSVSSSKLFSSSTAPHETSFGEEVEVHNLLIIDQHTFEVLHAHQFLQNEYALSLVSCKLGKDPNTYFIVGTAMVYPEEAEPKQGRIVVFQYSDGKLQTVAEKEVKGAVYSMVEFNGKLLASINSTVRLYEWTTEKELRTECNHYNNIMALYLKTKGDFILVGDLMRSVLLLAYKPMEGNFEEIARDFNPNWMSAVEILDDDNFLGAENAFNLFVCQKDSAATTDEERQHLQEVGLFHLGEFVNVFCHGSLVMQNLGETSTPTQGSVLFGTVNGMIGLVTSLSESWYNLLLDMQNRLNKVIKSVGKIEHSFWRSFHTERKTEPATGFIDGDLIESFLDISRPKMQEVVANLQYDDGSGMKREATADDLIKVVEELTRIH

SMILES	TR-FRET-IKZF2 (Normalized to CC-885) (CRBN and Helios (IKZF2); [1])	TR-FRET-IKZF2 (Normalized to CC-885) (CRBN and Helios (IKZF2); [2])	TR-FRET-IKZF2 (Normalized to CC-885) (CRBN and Helios (IKZF2); [3])	IKZF2 GFP/RFP Relative Abundance (IKZF2; [4])	IKZF2 GFP/RFP Relative Abundance (IKZF2; [5])	IKZF2 GFP/RFP Relative Abundance (IKZF2; [6])	IKZF1 GFP/RFP Relative Abundance (IKZF1; [4])	IKZF1 GFP/RFP Relative Abundance (IKZF1; [5])	IKZF1 GFP/RFP Relative Abundance (IKZF1; [6])	GSPT1 GFP/RFP Relative Abundance (GSPT1; [4])	GSPT1 GFP/RFP Relative Abundance (GSPT1; [5])	GSPT1 GFP/RFP Relative Abundance (GSPT1; [6])	potency of IKZF2 degradation, in words (IKZF2; Table 3 summary)	DC50 (IKZF2) [nM]	DC50 (IKZF1) [nM]	DC50 (GSPT1) [nM]	potency of IKZF1 degradation, in words (IKZF1; Table 3 summary)
Cc1ccc(NC(=O)NCc2cccc(NC3=CC(=O)N(C4CCC(=O)NC4=O)C3=O)c2)cc1C (centres unmarked) [Compound 58, 1-(3,4-dimethylphenyl)-3-(3-((1-(2,6-dioxopiperidin-3-yl)-2,5-dioxo-2,5-dihydro-1H-pyrrol-3-yl)amino)benzyl)urea]	1.184	1.061	0.927	0.064	0.077	0.122	0.075	0.070	0.074	0.421	0.603	0.594	–	–	–	–	–
Cc1ccc(NC(=O)Oc2cccc(NC3=CC(=O)N(C4CCC(=O)NC4=O)C3=O)c2)cc1Cl (centres unmarked) [Compound 51, 3-((1-(2,6-dioxopiperidin-3-yl)-2,5-dioxo-2,5-dihydro-1H-pyrrol-3-yl)amino)phenyl (3-chloro-4-methylphenyl)carbamate]	0.037	0.032	0.017	1.083	1.044	1.024	0.861	1.001	1.026	1.680	0.829	0.775	–	–	–	–	–
Cc1ccc(NC(=O)/C=C/c2cccc(NC3=CC(=O)N(C4CCC(=O)NC4=O)C3=O)c2)cc1Cl (centres unmarked) [Compound 57, (E)-N-(3-chloro-4-methylphenyl)-3-(3-((1-(2,6-dioxopiperidin-3-yl)-2,5-dioxo-2,5-dihydro-1H-pyrrol-3-yl)amino)phenyl)acrylamide]	0.530	0.365	0.282	0.843	0.622	0.656	0.502	0.214	0.305	0.385	0.559	0.779	–	–	–	–	–
Cc1ccc(NC(=O)N[C@@H](C)c2cccc(NC3=CC(=O)N(C4CCC(=O)NC4=O)C3=O)c2)cc1Cl (stereo partly drawn) [Compound 71, 1-(3-chloro-4-methylphenyl)-3-((1S)-1-(3-((1-(2,6-dioxopiperidin-3-yl)-2,5-dioxo-2,5-dihydro-1H-pyrrol-3-yl)amino)phenyl)ethyl)urea]	1.811	1.675	1.657	0.016	0.018	0.019	0.088	0.086	0.076	–	–	–	most potent against IKZF2	1.9	2.1	> 1000	–
Cc1ccc(NC(=O)Cc2cccc(NC3=CC(=O)N(C4CCC(=O)NC4=O)C3=O)c2)cc1Cl (centres unmarked) [Compound 50, N-(3-chloro-4-methylphenyl)-2-(3-((1-(2,6-dioxopiperidin-3-yl)-2,5-dioxo-2,5-dihydro-1H-pyrrol-3-yl)amino)phenyl)acetamide]	1.011	0.889	0.848	0.188	0.195	0.267	0.073	0.068	0.093	0.645	0.702	0.643	–	–	–	–	–
Cc1ccc(NC(=O)OCc2cccc(NC3=CC(=O)N(C4CCC(=O)NC4=O)C3=O)c2)cc1Cl (centres unmarked) [Compound 48, 3-((1-(2,6-dioxopiperidin-3-yl)-2,5-dioxo-2,5-dihydro-1H-pyrrol-3-yl)amino)benzyl (3-chloro-4-methylphenyl)carbamate]	0.140	0.079	0.044	1.053	1.076	1.057	1.041	0.903	1.000	1.591	0.365	0.579	–	–	–	–	–
Cc1ccc(NC(=O)c2cccc(NC3=CC(=O)N(C4CCC(=O)NC4=O)C3=O)c2)cc1Cl (centres unmarked) [Compound 49, N-(3-chloro-4-methylphenyl)-3-((1-(2,6-dioxopiperidin-3-yl)-2,5-dioxo-2,5-dihydro-1H-pyrrol-3-yl)amino)benzamide]	0.801	0.690	0.472	0.665	0.612	0.830	0.268	0.187	0.314	0.125	0.055	0.069	–	7.2	1.9	> 1000	most potent against IKZF1
Cc1ccc(NC(=O)NCCc2cccc(NC3=CC(=O)N(C4CCC(=O)NC4=O)C3=O)c2)cc1Cl (centres unmarked) [Compound 62, 1-(3-chloro-4-methylphenyl)-3-(3-((1-(2,6-dioxopiperidin-3-yl)-2,5-dioxo-2,5-dihydro-1H-pyrrol-3-yl)amino)phenethyl)urea]	1.642	1.563	1.483	0.040	0.015	0.036	0.133	0.098	0.109	0.353	1.021	1.208	–	29	26	> 1000	–
Cc1ccc(NC(=O)CCc2cccc(NC3=CC(=O)N(C4CCC(=O)NC4=O)C3=O)c2)cc1Cl (centres unmarked) [Compound 53, N-(3-chloro-4-methylphenyl)-3-(3-((1-(2,6-dioxopiperidin-3-yl)-2,5-dioxo-2,5-dihydro-1H-pyrrol-3-yl)amino)phenyl)propanamide]	1.708	1.574	1.455	0.030	0.022	0.029	0.110	0.077	0.078	0.232	0.982	0.931	–	–	–	–	–
